How the values were obtained:
Caenorhabditis elegans [1] = assay: C. elegans L1 larvae dose-response, 5 day visual viability score (Examples 2 and 7); assay type: in vivo; design: key: Dead: only stiff L1s (no movement); Dead (L4): worms are dead, but at a later larval stage; majority of worms are L1 (based on size); majority of worms are L2 (based on size); majority of worms are L3 (based on size); majority of worms are L4 (based on size); AD: majority of worms are adult; #AD: 5 adult worms or less; B!: sterile (0-25 progeny); B: low broodsize (25-100 progeny); ˜B: moderate broodsize (100-250 progeny); <: reduced broodsize (250-500 progeny); OK: no effect (˜1000+ progeny)
Method: Caenorhabditis elegans adults were grown on Nematode Growth Medium (NGM) until they produced eggs, then the adults were removed.
The eggs were allowed to hatch, and the L1 larvae collected. See The Neniatode Caenorhabditis elegans (1988) Cold Spring Harbor Laboratory Press. Using a Matrix Programmable Pipette, the L1s were distributed into 96-well tissue culture plates, 20 L1 in 50 μl NGM per well. Antibiotic/Antimyotic was added to each well, and 1% by weight E. coli strain HB101. The subject anthelmintic compounds were stored at 5 mM in 100% DMSO. 0.7 μl of compounds 1-31 were added to the left-most column of wells to yield a final concentration of 70 μM in 1.4% DMSO, with 1.4% DMSO only as the control. The compounds were then subjected to 5 more 3-fold dilutions from left to right to yield 6 column concentrations of 70 μM, 23.3 μM, 7.8 μM, 2.6 μM, 0.9 μM, and 0.3 μM. Plates were stored in air-tight Rubbermaid plastic boxes at 20° C. The nematodes had cleared all control wells by day 4, and nematode viability was scored by visual examination under a 100× dissecting microscope on day 5. A visual viability scoring system was used as follows:
If several classes of worms exist in a well, then all classes are scored. If adults are present, then the brood score is also recorded. Thus, “L1/L2” would mean a mixture of L1's and L2's are present in the well. “L4/#AD/B” would mean that a mixture of L4's and adults are resent in the well. The “#AD” would mean that there are 6 or less adults, and the “B” would mean that there were 100 progeny or less.
Column VI has a compound concentration of 70 μM with sequential 3-fold dilutions reported in columns V2, V3, V4, V5, and V6, respectively, such that the V6 concentration was 0.3 μM.
(§1) The nematicidal activity of anthelmintic Compositions 48-118 were determined in accordance with the procedure outlined in Example 2.

Caenorhabditis elegans [2] = assay: HTS runs (initial and follow-up): mOD, % Run and visual score (Table 3); assay type: in vivo; design: key to Initial HTS Run Visual Score / Follow-up HTS Run Visual Score: Dead: only stiff L1s (no movement); Dead (L4): worms are dead, but at a later larval stage; majority of worms are L1 (based on size); majority of worms are L2 (based on size); majority of worms are L3 (based on size); majority of worms are L4 (based on size); AD: majority of worms are adult; #AD: 5 adult worms or less; B!: sterile (0-25 progeny); B: low broodsize (25-100 progeny); ˜B: moderate broodsize (100-250 progeny); <: reduced broodsize (250-500 progeny); OK: no effect (˜1000+ progeny)
Method: as §1

[3] = 0.3 μM, viability scored day 5, Table 1
[4] = 2.6 μM, viability scored day 5, Table 1
[5] = 23.3 μM, viability scored day 5, Table 1
[6] = 70 μM, viability scored day 5, Table 1
[7] = 7.8 μM, viability scored day 5, Table 1
[8] = 0.9 μM, viability scored day 5, Table 1
[9] = 0.3 μM (procedure of Example 2), day 5, Table 3
[10] = 0.9 μM (procedure of Example 2), day 5, Table 3
[11] = 7.8 μM (procedure of Example 2), day 5, Table 3
[12] = 23.3 μM (procedure of Example 2), day 5, Table 3
[13] = 70 μM (procedure of Example 2), day 5, Table 3
[14] = 2.6 μM (procedure of Example 2), day 5, Table 3

SMILES	5 Day Visual Score V6 (Caenorhabditis elegans [1]; [3])	5 Day Visual Score V4 (Caenorhabditis elegans [1]; [4])	5 Day Visual Score V2 (Caenorhabditis elegans [1]; [5])	5 Day Visual Score V1 (Caenorhabditis elegans [1]; [6])	5 Day Visual Score V3 (Caenorhabditis elegans [1]; [7])	Follow-up HTS Run % Run (Caenorhabditis elegans [2]) [%]	Follow-up HTS Run mOD (Caenorhabditis elegans [2]) [mOD]	Initial HTS Run % Run (Caenorhabditis elegans [2]) [%]	Initial HTS Run Visual Score (Caenorhabditis elegans [2])	Initial HTS Run mOD (Caenorhabditis elegans [2]) [mOD]	5 Day Visual Score V6 (Caenorhabditis elegans [1]; [9])	5 Day Visual Score V5 (Caenorhabditis elegans [1]; [10])	other results
O=C(Nc1ccc(OC(F)(F)F)cc1)NC1CCC(c2nc(-c3ccccc3)no2)CC1 (centres unmarked) [AKC 107]	L2/Dead(L	Dead(L4)	Dead(L2/L3)	Dead	–	–	–	–	–	–	–	–	–
O=C(Nc1ccc(Br)cc1)N1CCC(c2nc(-c3ccccc3)no2)CC1 [AKC 108]	–	L1	Dead	Dead	L1	–	–	–	–	–	–	–	–
O=C(NCCc1ccccc1F)C1C(c2ccccc2Cl)=NOC1c1ccc(-c2ccccc2)cc1 (centres unmarked) [AKC 110]	L1	L1	L1	L1	L1	–	–	–	–	–	–	–	5 Day Visual Score V5 (Caenorhabditis elegans [1]; [8]): L1
COc1ccccc1-c1noc(C(C)CNC(=O)Nc2ccc(OC(F)(F)F)cc2)n1 (centres unmarked) [AKC 111]	OK (no effect (˜1000+ progeny))	Dead(L3/L	Dead	Dead	L2	–	–	–	–	–	–	–	–
Cc1ccc(-c2noc(C3CCC(CNC(=O)Nc4ccc(OC(F)(F)F)cc4)CC3)n2)cc1C (centres unmarked) [AKC 112]	OK (no effect (˜1000+ progeny))	–	–	–	–	–	–	–	–	–	–	–	5 Day Visual Score V5 (Caenorhabditis elegans [1]; [8]): #AD/˜B
O=C(NCC1CCC(c2nc(-c3ccccc3)no2)CC1)Nc1ccc(OC(F)(F)F)cc1 (centres unmarked) [AKC 113]	L4/#AD/B	Dead(L2/L	Dead	Dead	Dead	–	–	–	–	–	–	–	–
O=C(Nc1ccc(Br)cc1)NC1CCC(c2nc(-c3ccccc3)no2)CC1 (centres unmarked) [AKC 114]	B (low broodsize (25-100 progeny))	L3/Dead(L	L3/Dead(L4)	Dead	L3	–	–	–	–	–	–	–	–
O=C(NCCCCCc1nc(-c2ccccc2)no1)Nc1ccc(OC(F)(F)F)cc1 [AKC 115]	–	Dead(L2)	Dead(L2/L3)	Dead	L2/Dead(L2)	–	–	–	–	–	–	–	5 Day Visual Score V5 (Caenorhabditis elegans [1]; [8]): Dead(L2/L
CC(C)(C)C1=NOC(c2ccc(-c3ccccc3)cc2)C1C(=O)NCCc1ccccc1F (centres unmarked) [AKC 120]	OK (no effect (˜1000+ progeny))	–	–	L1	L1	–	–	–	–	–	–	–	5 Day Visual Score V5 (Caenorhabditis elegans [1]; [8]): #AD/˜B
COc1ccc(C2=NOC(c3ccc(-c4ccccc4)cc3)C2C(=O)NCCc2ccccc2F)cc1 (centres unmarked) [AKC 121]	< (reduced broodsize (250-500 progeny))	#AD/˜B	L1	L1	–	–	–	–	–	–	–	–	–
CCOc1ccc(C2ON=C(c3ccc(F)cc3)C2C(=O)NCCc2ccc(F)cc2)cc1 (centres unmarked) [AKC 122]	OK (no effect (˜1000+ progeny))	–	L1	Dead	–	–	–	–	–	–	–	–	–
CCOc1ccc(C2ON=C(c3ccc(N(C)C)cc3)C2C(=O)NCCc2ccc(F)cc2)cc1 (centres unmarked) [AKC 123]	#AD/˜B	< (reduced broodsize (250-500 progeny))	–	L1	–	–	–	–	–	–	–	–	–
CCOc1cccc(C2ON=C(c3ccccc3OCC)C2C(=O)NCCc2ccc(OC)c(OCC)c2)c1 (centres unmarked) [AKC 124]	L4/#AD/B	L4/#AD/B	–	–	–	–	–	–	–	–	–	–	5 Day Visual Score V5 (Caenorhabditis elegans [1]; [8]): L4/#AD/B
CCOc1cccc(C2ON=C(c3ccccc3OCC)C2C(=O)NCc2ccc(OC(F)(F)F)cc2)c1 (centres unmarked) [AKC 125]	< (reduced broodsize (250-500 progeny))	L2	L2/Dead(L4)	L2/Dead(L3)	L2	–	–	–	–	–	–	–	–
CCC1CCCCN1c1cc(Oc2ccc(-c3ccccc3)cc2)ncn1 (centres unmarked) [AKC 148]	–	–	–	–	–	126	170	143	Dead-Black Husk	278	˜B (moderate broodsize (100-250 progeny))	˜B (moderate broodsize (100-250 progeny))	Follow-up HTS Run Visual Score (Caenorhabditis elegans [2]): Dead; 5 Day Visual Score V3 (Caenorhabditis elegans [1]; [11]): Dead; 5 Day Visual Score V2 (Caenorhabditis elegans [1]; [12]): Dead; 5 Day Visual Score V1 (Caenorhabditis elegans [1]; [13]): Dead
CC(CCc1ccccc1)Nc1cc(Oc2ccc(-c3ccccc3)cc2)ncn1 (centres unmarked) [AKC 149]	–	–	–	–	–	100	135	133	Dead	259	< (reduced broodsize (250-500 progeny))	< (reduced broodsize (250-500 progeny))	Follow-up HTS Run Visual Score (Caenorhabditis elegans [2]): Dead; 5 Day Visual Score V3 (Caenorhabditis elegans [1]; [11]): Dead; 5 Day Visual Score V2 (Caenorhabditis elegans [1]; [12]): Dead; 5 Day Visual Score V1 (Caenorhabditis elegans [1]; [13]): Dead
FC(F)(F)c1ccccc1CNc1cc(Oc2ccc(-c3ccccc3)cc2)ncn1 [AKC 339]	–	–	–	–	–	113	153	142	1AD/B	277	OK (no effect (˜1000+ progeny))	OK (no effect (˜1000+ progeny))	Follow-up HTS Run Visual Score (Caenorhabditis elegans [2]): B (low broodsize (25-100 progeny)); 5 Day Visual Score V4 (Caenorhabditis elegans [1]; [14]): OK (no effect (˜1000+ progeny)); 5 Day Visual Score V3 (Caenorhabditis elegans [1]; [11]): OK (no effect (˜1000+ progeny)); 5 Day Visual Score V2 (Caenorhabditis elegans [1]; [12]): OK (no effect (˜1000+ progeny)); 5 Day Visual Score V1 (Caenorhabditis elegans [1]; [13]): OK (no effect (˜1000+ progeny))
c1ccc2c(c1)CCN(c1cc(Oc3ccc4ccccc4c3)ncn1)C2 [AKC 342]	–	–	–	–	–	92	124	106	L4/AD/B!	207	OK (no effect (˜1000+ progeny))	OK (no effect (˜1000+ progeny))	Follow-up HTS Run Visual Score (Caenorhabditis elegans [2]): B!-Healthy; 5 Day Visual Score V4 (Caenorhabditis elegans [1]; [14]): ˜B (moderate broodsize (100-250 progeny))
CN(Cc1ccccc1)c1cc(Oc2cccc(F)c2)ncn1 [AKC 344]	–	–	–	–	–	119	161	131	L2	256	OK (no effect (˜1000+ progeny))	OK (no effect (˜1000+ progeny))	5 Day Visual Score V4 (Caenorhabditis elegans [1]; [14]): OK (no effect (˜1000+ progeny)); 5 Day Visual Score V2 (Caenorhabditis elegans [1]; [12]): Dead; 5 Day Visual Score V1 (Caenorhabditis elegans [1]; [13]): Dead
Fc1ccc(Oc2cc(N3CCc4ccccc4C3)ncn2)cc1 [AKC 345]	–	–	–	–	–	114	154	135	L1	264	OK (no effect (˜1000+ progeny))	OK (no effect (˜1000+ progeny))	5 Day Visual Score V4 (Caenorhabditis elegans [1]; [14]): OK (no effect (˜1000+ progeny)); 5 Day Visual Score V3 (Caenorhabditis elegans [1]; [11]): L4; 5 Day Visual Score V2 (Caenorhabditis elegans [1]; [12]): L1; 5 Day Visual Score V1 (Caenorhabditis elegans [1]; [13]): L1
NS(=O)(=O)c1ccc(NC(=O)CN2CCCC(NC(=O)c3cc4ccccc4o3)C2)cc1 (centres unmarked) [AKC 348]	–	–	–	–	–	123	166	126	Dead	246	B (low broodsize (25-100 progeny))	< (reduced broodsize (250-500 progeny))	5 Day Visual Score V3 (Caenorhabditis elegans [1]; [11]): Dead; 5 Day Visual Score V2 (Caenorhabditis elegans [1]; [12]): Dead; 5 Day Visual Score V1 (Caenorhabditis elegans [1]; [13]): Dead
O=C(NCCc1ccccc1F)C1C(c2ccc(F)cc2)=NOC1c1ccc(-c2ccccc2)cc1 (centres unmarked) [AKC 2153]	–	–	L1	L1	–	–	–	–	–	–	–	–	–

Source: patent US20010049373A1, “Materials and methods for killing nematodes and nematode eggs” (priority 2000, published 2001)
